Measured values: US9751858B2, “3-heteroaroylamino-propionic acid derivatives and their use as pharmaceuticals” (SANOFI, priority 2011, dated 2017)

biological target: T1, Recombinant human cathepsin A (Homo sapiens, UniProt P10619); assay: Cathepsin A inhibitory activity; assay type: biochemical; settings: activated recombinant human cathepsin A 833 ng/ml, Bodipy FL-labeled bradykinin 2 μM, pH 5.5, 15 min room temperature
T1 construct: Recombinant human cathepsin A (residues 29-480, with a C-terminal 10-His tag); 10-His (C); purchased R&D Systems 1049-SE
T1 sequence (P10619 29-326 limits assumed): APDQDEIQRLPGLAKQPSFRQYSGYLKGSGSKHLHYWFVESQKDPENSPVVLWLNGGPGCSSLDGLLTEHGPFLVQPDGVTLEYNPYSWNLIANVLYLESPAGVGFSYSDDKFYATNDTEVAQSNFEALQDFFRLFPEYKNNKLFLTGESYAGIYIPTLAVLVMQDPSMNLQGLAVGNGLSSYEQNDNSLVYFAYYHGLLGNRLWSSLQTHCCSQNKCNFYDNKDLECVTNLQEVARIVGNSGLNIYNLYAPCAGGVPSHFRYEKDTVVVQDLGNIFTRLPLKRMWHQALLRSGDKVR
T1 sequence (P10619 327-480 limits assumed): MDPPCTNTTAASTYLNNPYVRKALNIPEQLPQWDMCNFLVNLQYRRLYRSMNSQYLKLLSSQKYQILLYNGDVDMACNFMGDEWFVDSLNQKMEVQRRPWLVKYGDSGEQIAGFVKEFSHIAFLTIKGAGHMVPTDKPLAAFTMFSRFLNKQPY
Protocol: a) Cathepsin a Inhibitory Activity
Briefly, cathepsin A was incubated at 10 μg/ml with cathepsin L at 1 μg/ml in activation buffer (25 mM 2-(morpholin-4-yl)-ethanesulfonic acid (MES), pH 6.0, containing 5 mM dithiothreitol (DTT)) for 15 min at 37° C.
The activated cathepsin A was diluted in assay buffer (25 mM MES, pH 5.5, containing 5 mM DTT) and mixed with the test compound (dissolved in assay buffer containing (v/v) 3% DMSO) or, in the control experiments, with the vehicle in a multiple assay plate. After incubation for 15 min at room temperature, as substrate then bradykinin carrying an N-terminal ®Bodipy FL (4,4-difluoro-5,7-dimethyl-4-bora-3a,4a-diaza-s-indacene-3-propionyl) label (JPT Peptide Technologies GmbH; dissolved in assay buffer) was added to the mixture. […] After incubation for 15 min at room temperature the reaction was stopped by the addition of stop buffer (130 mM 2-(4-(2-hydroxy-ethyl)-piperazin-1-yl)-ethanesulfonic acid, pH 7.4, containing (v/v) 0.013%® Triton X-100, 0.13% Coating Reagent 3 (Caliper Life Sciences), 6.5% DMSO and 20 μM ebelactone B (Sigma, # E0886)).
Uncleaved substrate and product were then separated by a microfluidic capillary electrophoresis on a LabChip® 3000 Drug Discovery System (12-Sipper-Chip; Caliper Life Sciences) and quantified by determination of the respective peak areas. Substrate turnover was calculated by dividing product peak area by the sum of substrate and product peak areas, and the enzyme activity and the inhibitory effect of the test compound thus quantified.

IC50	Structure (SMILES)
> 10 µM	O=C(O)C[C@@H](Cc1ccccc1)NC(=O)CCc1nc(-c2ccccc2F)no1 [Example 49, (R)-3-{3-[3-(2-Fluoro-phenyl)-[1,2,4]oxadiazol-5-yl]-propionylamino}-4-phenyl-butyric acid]
> 10 µM	Cc1cccc([C@H](CC(=O)O)NC(=O)CCc2nc(-c3ccccc3F)no2)c1 [Example 50, (S)-3-{3-[3-(2-Fluoro-phenyl)-[1,2,4]oxadiazol-5-yl]-propionylamino}-3-m-tolyl-propionic acid]
> 10 µM	C[C@@](CC(=O)O)(NC(=O)CCc1nc(-c2ccccc2F)no1)c1ccccc1 [Example 51, (S)-3-{3-[3-(2-Fluoro-phenyl)-[1,2,4]oxadiazol-5-yl]-propionylamino}-3-phenyl-butyric acid]
> 10 µM	Cc1ccc([C@H](CC(=O)O)NC(=O)CCc2nc(-c3ccccc3F)no2)cc1 [Example 52, (S)-3-{3-[3-(2-Fluoro-phenyl)-[1,2,4]oxadiazol-5-yl]-propionylamino}-3-p-tolyl-propionic acid]
> 10 µM	Cc1ccccc1[C@H](CC(=O)O)NC(=O)CCc1nc(-c2ccccc2F)no1 [Example 53, (S)-3-{3-[3-(2-Fluoro-phenyl)-[1,2,4]oxadiazol-5-yl]-propionylamino}-3-o-tolyl-propionic acid]
> 10 µM	O=C(O)C[C@H](NC(=O)CCc1nc(-c2ccccc2F)no1)c1ccc(F)cc1 [Example 58, (S)-3-(4-Fluoro-phenyl)-3-{3-[3-(2-fluoro-phenyl)-[1,2,4]oxadiazol-5-yl]-propionylamino}-propionic acid]
0.337 µM	O=C(O)C[C@H](NC(=O)CCc1nc(-c2ccccc2F)no1)c1ccccc1F [Example 59, (S)-3-(2-Fluoro-phenyl)-3-{3-[3-(2-fluoro-phenyl)-[1,2,4]oxadiazol-5-yl]-propionylamino}-propionic acid]
22.4 µM	O=C(O)C[C@H](NC(=O)CCc1nc(-c2ccccc2F)no1)c1cccc(F)c1 [Example 60, (S)-3-(3-Fluoro-phenyl)-3-{3-[3-(2-fluoro-phenyl)-[1,2,4]oxadiazol-5-yl]-propionylamino}-propionic acid]
0.189 µM	Cc1oc(-c2ccccc2F)nc1C(=O)N[C@@H](CC(=O)O)c1cccc(Cl)c1 [Example 61, (S)-3-(3-Chloro-phenyl)-3-{[2-(2-fluoro-phenyl)-5-methyl-oxazole-4-carbonyl]-amino}-propionic acid]
3.41 µM	Cc1oc(-c2ccccc2F)nc1C(=O)NC(CC(=O)O)c1ccccc1Cl (stereo not drawn) [Example 62, 3-(2-Chloro-phenyl)-3-{[2-(2-fluoro-phenyl)-5-methyl-oxazole-4-carbonyl]-amino}-propionic acid]
3.41 µM	Cc1oc(-c2ccccc2F)nc1C(=O)N[C@@H](CC(=O)O)c1ccc(Cl)cc1 [Example 63, (S)-3-(4-Chloro-phenyl)-3-{[2-(2-fluoro-phenyl)-5-methyl-oxazole-4-carbonyl]-amino}-propionic acid]
> 10 µM	COc1ccc([C@H](CC(=O)O)NC(=O)CCc2nc(-c3ccccc3F)no2)cc1 [Example 73, (S)-3-{3-[3-(2-Fluoro-phenyl)-[1,2,4]oxadiazol-5-yl]-propionylamino}-3-(4-methoxy-phenyl)-propionic acid]
0.61 µM	O=C(O)C[C@H](NC(=O)CCc1nc(-c2ccccc2F)no1)c1cccc(Cl)c1 [Example 74, (S)-3-(3-Chloro-phenyl)-3-{3-[3-(2-fluoro-phenyl)-[1,2,4]oxadiazol-5-yl]-propionylamino}-propionic acid]

Second part, the molecule before the results:

Structure (SMILES)	IC50
O=C(N[C@H](C(=O)O)C1CCCCC1)c1noc(-c2cnccc2C(F)(F)F)n1 [Example 54, (S)-Cyclohexyl-{[5-(4-trifluoromethyl-pyridin-3-yl)-[1,2,4]oxadiazole-3-carbonyl]-amino}-acetic acid]	16.7 µM
Cc1ccc([C@H](CC(=O)O)NC(=O)c2nc(C)n(-c3ccccc3Cl)n2)cc1 [Example 55, (S)-3-{[1-(2-Chloro-phenyl)-5-methyl-1H-[1,2,4]triazole-3-carbonyl]-amino}-3-p-tolyl-propionic acid]	0.738 µM
CCc1nc(C(=O)N[C@@H](CC(=O)O)c2ccccc2)nn1-c1ccccc1Cl [Example 56, (S)-3-{[1-(2-Chloro-phenyl)-5-ethyl-1H-[1,2,4]triazole-3-carbonyl]-amino}-3-phenyl-propionic acid]	1.68 µM
Cc1ccccc1[C@H](CC(=O)O)NC(=O)c1nc(C)n(-c2ccccc2Cl)n1 [Example 57, (S)-3-{[1-(2-Chloro-phenyl)-5-methyl-1H-[1,2,4]triazole-3-carbonyl]-amino}-3-o-tolyl-propionic acid]	0.261 µM
CCCS(=O)(=O)Nc1cn(C)nc1C(=O)N[C@@H](CC(=O)O)c1ccccc1C [Example 64, (S)-3-{[1-Methyl-4-(propane-1-sulfonylamino)-1H-pyrazole-3-carbonyl]-amino}-3-o-tolyl-propionic acid]	> 10 µM
COc1cccc([C@H](CC(=O)O)NC(=O)c2nc(-c3ccccc3)oc2C(C)C)c1 [Example 65, (S)-3-[(5-Isopropyl-2-phenyl-oxazole-4-carbonyl)-amino]-3-(3-methoxy-phenyl)-propionic acid]	> 10 µM
COc1cccc([C@H](CC(=O)O)NC(=O)c2nc(-c3ccccc3)oc2C)c1OC [Example 66, (S)-3-(2,3-Dimethoxy-phenyl)-3-[(5-methyl-2-phenyl-oxazole-4-carbonyl)-amino]-propionic acid]	12.5 µM
CC(C)c1oc(-c2ccccc2)nc1C(=O)N[C@@H](CC(=O)O)c1ccccc1Cl [Example 67, (S)-3-(2-Chloro-phenyl)-3-[(5-isopropyl-2-phenyl-oxazole-4-carbonyl)-amino]-propionic acid]	1.4 µM
O=C(O)CC(NC(=O)c1nc(-c2ccccc2)oc1C(F)(F)F)C1CCCCC1 (stereo not drawn) [Example 68, 3-Cyclohexyl-3-[(2-phenyl-5-trifluoromethyl-oxazole-4-carbonyl)-amino]-propionic acid]	14.8 µM
O=C(O)C[C@H](NC(=O)c1nc(-c2ccccc2)n(-c2ccccc2)n1)c1ccccc1 [Example 69, (S)-3-[(1,5-Diphenyl-1H-[1,2,4]triazole-3-carbonyl)-amino]-3-phenyl-propionic acid]	0.387 µM
CCc1nc(C(=O)N[C@@H](CC(=O)O)c2ccccc2C)nn1-c1ccccc1Cl [Example 70, (S)-3-{[1-(2-Chloro-phenyl)-5-ethyl-1H-[1,2,4]triazole-3-carbonyl]-amino}-3-o-tolyl-propionic acid]	0.166 µM
CCc1nc(C(=O)N[C@@H](CC(=O)O)c2ccc(C)cc2)nn1-c1ccccc1Cl [Example 71, (S)-3-{[1-(2-Chloro-phenyl)-5-ethyl-1H-[1,2,4]triazole-3-carbonyl]-amino}-3-p-tolyl-propionic acid]	0.492 µM
Cc1ccccc1[C@H](CC(=O)O)NC(=O)c1nn(Cc2ccccc2)c2ccccc12 [Example 72, (S)-3-[(1-Benzyl-1H-indazole-3-carbonyl)-amino]-3-o-tolyl-propionic acid]	0.171 µM
Cc1oc(-c2ccccc2)nc1C(=O)N[C@@H](CC(=O)O)c1ccc(Cl)cc1Cl [Example 75, (S)-3-(2,4-Dichloro-phenyl)-3-[(5-methyl-2-phenyl-oxazole-4-carbonyl)-amino]-propionic acid]	1.75 µM
